Data set [1] has as its system HIF-1α. As to conditions: colon cancers, oxygen concentrations from 5 to 1%; cited from earlier work.
Data set [2] in a line: clinical. As to conditions: human, in vivo. How it is done:
Concentration-time curve and PK parameters were analyzed for each compound. Maximal concentrations (Cmax) and the time to reach the Cmax (Tmax) were graphically identified and the AUC was calculated with a non-compartmental method.

Results on two compounds are retold here after paper PMC7656302 (Cancers, 2020).

In the case of `CCc1c2c(nc3ccc(OC(=O)N4CCC(N5CCCCC5)CC4)cc13)-c1cc3c(c(=O)n1C2)COC(=O)[C@]3(O)CC` [irinotecan], in data set [1], the “inhibition of HIF-1α” value was “high inhibition of HIF-1α”. Further, the time of peak concentration (Tmax) in data set [2] (Irinotecan D1 Tmax) stood at 1.67 h. Moreover, the AUC is 6740 ng·h/mL in data set [2] (irinotecan mean AUC), 6870 ng·h/mL in data set [2] (mean AUC of irinotecan) and 5970 ng·h/mL in data set [2] (mean irinotecan AUCs).

The compound `CO[C@H]1C[C@@H]2CC[C@@H](C)[C@@](O)(O2)C(=O)C(=O)N2CCCC[C@H]2C(=O)O[C@H]([C@H](C)C[C@@H]2CC[C@@H](O)[C@H](OC)C2)CC(=O)[C@H](C)/C=C(\C)[C@@H](O)[C@@H](OC)C(=O)[C@H](C)C[C@H](C)/C=C/C=C/C=C/1C` [rapamycin] gave a concentration at 8 day in data set [2] (D8 rapamycin concentrations) of 6.75 ng/mL. Also, in data set [2] (Rapamycin D1 Tmax), the Tmax was determined as 3.5 h. The same compound had an AUC in data set [2] (mean AUC of D8 rapamycin) of 176 ng·h/mL.

Broadly, the Tmax is the time from dosing to the highest level. As usually defined, the AUC is concentration integrated over time. A high value points to high exposure.
